Where two headings read alike, the source gives them in different places.

For assay [1], the target named is T1, 11β-hsd-1 enzyme (Homo sapiens, UniProt P28845). Briefly: biochemical. Summed up:
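Enzyme (5 nM) pre-incubated ≥30 min at RT with inhibitor and 500 μM NADPH in triethanolamine buffer pH 8.0; reaction started with glucose-6-phosphate regenerating system and 200 nM 3H-cortisone, stopped with DMSO after 60 min. Product quantified by radio-HPLC; Kiapp from Morrison tight-binding equation.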

The target of assay [2] is T1, 11β-hsd-1 enzyme. Briefly: biochemical. As to conditions: for inhibition at 0.1 µM: read-out: % Inh @ 0.1 μM; for inhibition: read-out: % Inh @ 0.1 mM. Summed up:
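Human 11β-HSD-1 (5 nM) pre-incubated ≥30 min with inhibitor and 500 μM NADPH in triethanolamine buffer pH 8.0 with NaCl, n-dodecyl β-D-maltoside and β-ME; reaction started with G6P/G6PDH/MgCl2 regenerating system and 200 nM 3H-cortisone, run 60 min, stopped with DMSO. 3H-cortisol and substrate separated by radio-HPLC; percent inhibition from peak areas.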

T1 sequence (P28845 whole entry, species assumed): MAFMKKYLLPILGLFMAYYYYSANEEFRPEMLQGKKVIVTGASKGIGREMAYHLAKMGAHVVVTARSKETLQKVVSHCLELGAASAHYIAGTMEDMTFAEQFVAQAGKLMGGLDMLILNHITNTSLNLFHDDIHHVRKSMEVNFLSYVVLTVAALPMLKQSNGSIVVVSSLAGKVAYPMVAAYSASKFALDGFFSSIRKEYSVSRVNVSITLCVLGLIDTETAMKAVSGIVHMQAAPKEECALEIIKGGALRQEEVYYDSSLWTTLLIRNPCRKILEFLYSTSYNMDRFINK

With `CCc1cccc(NS(=O)(=O)N2CCCN(c3ccc(C(F)(F)F)cn3)CC2)n1` [Example 43], affinity in assay [1] was put at a Ki of 12 nM. In addition, in assay [2], the inhibition at 0.1 µM came to 93%.

With `Cc1ccc(C)n1-c1cccc(NS(=O)(=O)N2CCC(c3ccc(F)cc3)CC2)n1` [Example 57, N-[6-(2,5-dimethyl-1H-pyrrol-1-yl)pyridin-2-yl]-4-(4-fluorophenyl)piperidine-1-sulfonamide], the Ki (commonly the equilibrium dissociation constant of an inhibitor or competing ligand from its target) in assay [1] stood at 56 nM. In assay [2] (Table 1, inhibitor 0.1 μM), the inhibition at 0.1 µM is 85%.

For the compound `CCc1cccc(NS(=O)(=O)N2CCc3c(Cl)cccc3C2)n1` [Example 190, 5-chloro-N-(6-ethylpyridin-2-yl)-34-dihydroisoquinoline-2(1H)-sulfonamide], the affinity in assay [1] corresponds to a Ki of 1 nM. For the same compound, the inhibition in assay [2] is 100%.

In turn, `CCc1cccc(NS(=O)(=O)N2CCC(CCc3ccnc(NCC4CC4)n3)CC2)n1` [Example 82, 4-(2-{2-[(cyclopropylmethyl)-amino]pyrimidin-4-yl}ethyl)-N-(6-ethylpyridin-2-yl)piperidine-1-sulfonamide] returned a Ki in assay [1] of 11 nM. Besides, the inhibition in assay [2] was 100%.

Consider `CCc1cccc(NS(=O)(=O)N2CCN(c3ncccc3C(F)(F)F)CC2)n1` [Example 198, N-(6-ethylpyridin-2-yl)-4-[3-(trifluoromethyl)pyridin-2-yl]piperazine-1-sulfonamide], for which the affinity in assay [1], expressed as Ki, was 71 nM. Moreover, the inhibition in assay [2] is 69.1%.

In turn, `CCc1cccc(NS(=O)(=O)N2CCCC(COCC3CC3)CC2)n1` (centres unmarked) [Example 95, 4-[(cyclopropylmethoxy)-methyl]-N-(6-ethylpyridin-2-yl)azepane-1-sulfonamide] registered a Ki in assay [1] of 82 nM. For the same compound, in assay [2], the inhibition was 86.2%.

On to `Cc1cccc(NS(=O)(=O)N2CCCN(c3ncccn3)CC2)n1` [Example 133, N-(6-methylpyridin-2-yl)-4-pyrimidin-2-yl-14-diazepane-1-sulfonamide], for which, in assay [1], affinity was put at a Ki of 330 nM. In assay [2], the inhibition was 71%.

Regarding `Cc1cccc(NS(=O)(=O)N2CCN(c3cccc(C)n3)CC2)n1` [Example 131, N4-bis(6-methylpyridin-2-yl)piperazine-1-sulfonamide], in assay [1], affinity was put at a Ki of 29 nM. The inhibition in assay [2] came to 93.2%.

`CCc1cccc(NS(=O)(=O)N2CCC(Cc3ccccc3)CC2)n1` [Example 116, 4-benzyl-N-(6-ethylpyridin-2-yl)piperidine-1-sulfonamide]: the Ki in assay [1] was found to be 18 nM. For the same compound, the inhibition in assay [2] is 100%.

In assay [1], `N#Cc1ccc(N2CCCN(S(=O)(=O)Nc3ccc4ccccc4n3)CC2)nc1` [Example 45] returned a Ki of 53 nM. In addition, the inhibition at 0.1 µM in assay [2] amounted to 73%.

Regarding `O=S(=O)(Nc1ccc2ccccc2n1)N1CCCC(c2ccccc2)CC1` (centres unmarked) [Example 97, 4-phenyl-N-quinolin-2-ylazepane-1-sulfonamide], affinity in assay [1] was put at a Ki of 6.3 nM. Further, in assay [2], the inhibition came to 100%.

In assay [1], `Cc1cccc(NS(=O)(=O)N2CCOC(COc3cc(F)cc(F)c3)C2)n1` (centres unmarked) [Example 83, 2-[(35-difluorophenoxy)meth-yl]-N-(6-methylpyridin-2-yl)morpholine-4-sulfonamide] had a Ki of 110 nM. Also, the inhibition in assay [2] was 71.2%.

Compound `COc1ccc2oc(N3CCN(S(=O)(=O)Nc4cccc(C)n4)CC3)nc2c1` [Example 137, 4-(5-methoxy-13-benzoxazol-2-yl)-N-(6-methylpyridin-2-yl)piperazine-1-sulfonamide] returned a Ki in assay [1] of 9.9 nM. Moreover, the inhibition in assay [2] was found to be 93.8%.

Take `CCc1cccc(NS(=O)(=O)N2CCCC(c3ccnc(N4CCOCC4)n3)C2)n1` (centres unmarked) [Example 71, N-(6-ethylpyridin-2-yl)-3-(2-morpholin-4-ylpyrimidin-4-yl)pipendine-1-sulfonamide]: the Ki in assay [1] came to 23 nM. Also, the inhibition in assay [2] was found to be 92.7%.

For the compound `O=C(c1ccc(N2CCN(S(=O)(=O)Nc3ccc4ccccc4n3)CC2)nc1)N1CCOCC1` [Example 178, 4-[5-(morpholin-4-ylcarbonyl)pyridin-2-yl]-N-quinolin-2-ylpiperazine-1-sulfonamide], the affinity in assay [1] corresponds to a Ki of 190 nM. For the same compound, the inhibition in assay [2] came to 73.3%.

For the compound `Cc1cccc(NS(=O)(=O)N2CCCC(c3ccccc3)CC2)n1` (centres unmarked) [Example 84, N-(6-methylpyridin-2-yl)-4-phenylazepane-1-sulfonamide], the Ki in assay [1] amounted to 8.2 nM. Further, in assay [2], the inhibition was determined as 100%.

In the case of `COCC1CCCN(S(=O)(=O)Nc2ccc3ccccc3n2)CC1` (centres unmarked) [Example 99, 4-(methoxymethyl)-N-quinolin-2-ylazepane-1-sulfonamide], the affinity in assay [1], expressed as Ki, was 63 nM. Moreover, the inhibition in assay [2] turned out to be 77.6%.

As for `Cc1cccc(NS(=O)(=O)N2CCc3ccccc3CC2)n1` [Example 11], in assay [1], the affinity corresponds to a Ki of 2.8 nM. Besides, the inhibition at 0.1 µM in assay [2] is 95.5%.

Turning to `COc1cccc(N2CCN(S(=O)(=O)Nc3ccc4ccccc4n3)CC2)n1` [Example 165, 4-(6-methoxypyridin-2-yl)-N-quinolin-2-ylpiperazine-1-sulfonamide], the Ki in assay [1] worked out at 1.4 nM. The inhibition in assay [2] amounted to 100%.

Compound `CCOC(=O)N1CCN(S(=O)(=O)Nc2cccc(CC)n2)CC1` [Example 196, ethyl 4-{[(6-ethylpyridin-2-yl)amino]sulfonyl}piperazine-1-carboxylate] registered a Ki in assay [1] of 20 nM. In assay [2], the inhibition was found to be 85.8%.

In assay [1], `CC(C)c1cccc(NS(=O)(=O)N2CCN(c3ccc(C#N)cn3)CC2)n1` [Example 32, 4-(5-cyanopyridin-2-yl)-N-(6-isopropylpyridin-2-yl)piper-azine-1-sulfonamide] had a Ki of 2.4 nM. Further, the inhibition at 0.1 µM in assay [2] turned out to be 97%.

As for `Cc1cccc(NS(=O)(=O)N2CCN(c3ncccc3C#N)CC2)n1` [Example 132, 4-(3-cyanopyridin-2-yl)-N-(6-methylpyridin-2-yl)piperazine-1-sulfonamide], the Ki in assay [1] was 46 nM. Further, the inhibition in assay [2] amounted to 74.8%.

Source of the values: patent US20070027118A1 (priority 2005, published 2007).
